Test system: adult patients (aged 18-64 years) with TRD
Assay: Maximum time to onset of clinician-reported adverse events by AE week 1/week 4 occurrence (Tables 5-16; modal dose 56, modal dose 84, Total)
Type: in vivo, human
Procedure: Patients were monitored for >90 minutes after ESK administration at each treatment session, after which time they could leave the clinical site at the clinician's discretion. AEs were monitored and reported, and safety assessments, including clinical laboratory tests and physical examinations, were conducted throughout the study. Clinician-reported AEs were categorized as mild, moderate, or severe based on clinical judgement (Table 1).
Since flexible dosing (ESK 56 or 84 mg) was permitted in the studies and an individual patient's doses could change within dosing timeframes, patients were stratified by modal dose during the respective periods.
The time to onset of the adverse events experienced by patients in Example 2 was analyzed. Tables 5-11 include the summary of specific adverse events by their respective categorized maximum time to Onset (i) across sessions 3-8 during Induction Phase by AE week 1 occurrence (Table 5), (ii) during Optimization Phase by AE week 1 occurrence (Table 6), (iii) during Optimization Phase by AE week 4 occurrence (Table 7), (iv) during Month 3-6 of Maintenance Phase by AE week 1 occurrence (Table 8), (v) Month 3-6 of Maintenance Phase by AE week 4 occurrence (Table 9), (vi) Month 6-12 of Maintenance Phase by AE week 1 occurrence (Table 10), and (vii) during Month 6-12 of Maintenance Phase by AE week 4 (Table 11).
Tables 12-16 include the incidences of clinician-reported blood pressure (Table 12), clinician-reported dissociation (Table 13), dizziness (Table 14), sedation (Table 15), and vertigo (Table 16) spanning week 1 to month 12 using the data of Example 2.

[1] = Based on Week 1, None, Month 3-6
[2] = Based on Week 1, None, Month 6-12
[3] = Based on Week 1, None, Weeks 2-4
[4] = Based on Week 1, Once, Month 3-6
[5] = Based on Week 1, Once, Month 6-12
[6] = Based on Week 1, Once, Weeks 2-4
[7] = Based on Week 1, Twice, Month 2
[8] = Based on Week 1, Twice, Month 3-6
[9] = Based on Week 1, Twice, Month 6-12
[10] = Based on Week 1, Twice, Weeks 2-4
[11] = Based on Week 1, incidence None, Month 2
[12] = Based on Week 1, incidence None, Month 3-6
[13] = Based on Week 1, incidence None, Month 6-12
[14] = Based on Week 1, incidence None, Weeks 2-4
[15] = Based on Week 1, incidence Once, Month 2
[16] = Based on Week 1, incidence Once, Month 3-6
[17] = Based on Week 1, incidence Once, Month 6-12
[18] = Based on Week 1, incidence Once, Weeks 2-4
[19] = Based on Week 1, incidence Twice, Month 2
[20] = Based on Week 1, incidence Twice, Month 3-6
[21] = Based on Week 1, incidence Twice, Month 6-12
[22] = Based on Week 1, incidence Twice, Weeks 2-4
[23] = Based on Week 4, None, Month 3-6

## CN[C@]1(c2ccccc2Cl)CCCCC1=O [esketamine, (S)-2-(2-chlorophenyl)-2-(methylamino)cyclohexanone]
Based on Week 1, None, Month 2
  Blood Pressure (clinician): 0-30 m: 1
  Blood Pressure (clinician): 31-60 m: 12
  Blood Pressure (clinician): 61-90 m: 2
  Blood Pressure (clinician): % >60 m: 11.8%
  Blood Pressure (clinician): TOTAL: 17
  Blood Pressure (clinician): n >60 m: 2
[1]
  Blood Pressure (clinician): 31-60 m: 13
  Blood Pressure (clinician): 61-90 m: 1
  Blood Pressure (clinician): % >60 m: 5.9%
  Blood Pressure (clinician): TOTAL: 17
  Blood Pressure (clinician): n >60 m: 1
[2]
  Blood Pressure (clinician): 31-60 m: 8
  Blood Pressure (clinician): 61-90 m: 1
  Blood Pressure (clinician): % >60 m: 10%
  Blood Pressure (clinician): TOTAL: 10
  Blood Pressure (clinician): n >60 m: 1
[3]
  Blood Pressure (clinician): 31-60 m: 20
  Blood Pressure (clinician): 61-90 m: 1
  Blood Pressure (clinician): % >60 m: 4.8%
  Blood Pressure (clinician): TOTAL: 21
  Blood Pressure (clinician): n >60 m: 1
Based on Week 1, Once, Month 2
  Blood Pressure (clinician): 31-60 m: 9
  Blood Pressure (clinician): % >60 m: 0%
  Blood Pressure (clinician): TOTAL: 9
  Blood Pressure (clinician): n >60 m: 0
[4]
  Blood Pressure (clinician): 31-60 m: 4
  Blood Pressure (clinician): % >60 m: 0%
  Blood Pressure (clinician): TOTAL: 4
  Blood Pressure (clinician): n >60 m: 0
[5]
  Blood Pressure (clinician): 31-60 m: 1
  Blood Pressure (clinician): % >60 m: 0%
  Blood Pressure (clinician): TOTAL: 1
  Blood Pressure (clinician): n >60 m: 0
[6]
  Blood Pressure (clinician): 0-30 m: 1
  Blood Pressure (clinician): 31-60 m: 11
  Blood Pressure (clinician): 61-90 m: 1
  Blood Pressure (clinician): % >60 m: 7.7%
  Blood Pressure (clinician): TOTAL: 13
  Blood Pressure (clinician): n >60 m: 1
[7]
  Blood Pressure (clinician): 31-60 m: 10
  Blood Pressure (clinician): % >60 m: 0%
  Blood Pressure (clinician): TOTAL: 10
  Blood Pressure (clinician): n >60 m: 0
[8]
  Blood Pressure (clinician): 31-60 m: 3
  Blood Pressure (clinician): 61-90 m: 1
  Blood Pressure (clinician): % >60 m: 25%
  Blood Pressure (clinician): TOTAL: 4
  Blood Pressure (clinician): n >60 m: 1
[9]
  Blood Pressure (clinician): 31-60 m: 2
  Blood Pressure (clinician): % >60 m: 0%
  Blood Pressure (clinician): TOTAL: 2
  Blood Pressure (clinician): n >60 m: 0
[10]
  Blood Pressure (clinician): 31-60 m: 12
  Blood Pressure (clinician): 61-90 m: 1
  Blood Pressure (clinician): % >60 m: 14.2%
  Blood Pressure (clinician): >90 m: 1
  Blood Pressure (clinician): TOTAL: 14
  Blood Pressure (clinician): n >60 m: 2
[11]
  Dissociation (clinician), % >60 m: 0%
  Dizziness, % >60 m: 3.7%
  Sedation, % >60 m: 0%
  Vertigo, % >60 m: 4.2%
[12]
  Dissociation (clinician), % >60 m: 2.8%
  Dizziness, % >60 m: 2.9%
  Sedation, % >60 m: 11.8%
  Vertigo, % >60 m: 16.7%
[13]
  Dissociation (clinician), % >60 m: 4.5%
  Dizziness, % >60 m: 0%
  Sedation, % >60 m: 0%
  Vertigo, % >60 m: 11.1%
[14]
  Dissociation (clinician), % >60 m: 0%
  Dizziness, % >60 m: 4.3%
  Sedation, % >60 m: 15.8%
  Vertigo, % >60 m: 11.1%
[15]
  Dissociation (clinician), % >60 m: 4%
  Dizziness, % >60 m: 6.1%
  Sedation, % >60 m: 0%
  Vertigo, % >60 m: 15.8%
[16]
  Dissociation (clinician), % >60 m: 0%
  Dizziness, % >60 m: 0%
  Sedation, % >60 m: 0%
  Sedation, patients by time to onset: 0
  Vertigo, % >60 m: 16.7%
[17]
  Dissociation (clinician), % >60 m: 0%
  Dizziness, % >60 m: 0%
  Sedation, % >60 m: 0%
  Sedation, patients by time to onset: 0
  Vertigo, % >60 m: 0%
[18]
  Dissociation (clinician), % >60 m: 7.3%
  Dizziness, % >60 m: 5.4%
  Sedation, % >60 m: 57.1%
  Vertigo, % >60 m: 10.3%
[19]
  Dissociation (clinician), % >60 m: 0%
  Dizziness, % >60 m: 5.5%
  Sedation, % >60 m: 0%
  Vertigo, % >60 m: 0%
[20]
  Dissociation (clinician), % >60 m: 3%
  Dizziness, % >60 m: 2.9%
  Sedation, % >60 m: 0%
  Vertigo, % >60 m: 4%
[21]
  Dissociation (clinician), % >60 m: 0%
  Dizziness, % >60 m: 7.1%
  Sedation, % >60 m: 0%
  Vertigo, % >60 m: 0%
[22]
  Dissociation (clinician), % >60 m: 6.3%
  Dizziness, % >60 m: 7.9%
  Sedation, % >60 m: 16.7%
  Vertigo, % >60 m: 4.6%
Based on Week 4, None, Month 2
  Blood Pressure (clinician): 0-30 m: 1
  Blood Pressure (clinician): 31-60 m: 13
  Blood Pressure (clinician): 61-90 m: 2
  Blood Pressure (clinician): % >60 m: 11.1%
  Blood Pressure (clinician): TOTAL: 18
  Blood Pressure (clinician): n >60 m: 2
[23]
  Blood Pressure (clinician): 31-60 m: 13
  Blood Pressure (clinician): 61-90 m: 1
  Blood Pressure (clinician): % >60 m: 5.9%
  Blood Pressure (clinician): TOTAL: 17
